According to patent publication US20230107642A1 (Erasca, Inc., priority 2020, published 2023):

Each molecule was assayed against T1, K-Ras G12C (Homo sapiens, UniProt P01116, G12C) (assay: CAF assay (% CAF; method in Example 7, not in this part)). Details: 10 uM, 1 h; Table 3.
T1 construct: This protein contained 188 amino acids in total, including an N-terminal 6-Histidine tag; made in house; host or cells: E. coli BL21
Type: binding

In order of rising “% CAF @ 10 uM, 1h” value:
1. C=CC(=O)N1[C@@H](C)CN(c2nc(=O)n3c4c(c(-c5ccc(F)cc5F)c(Cl)cc24)SCC3)C[C@@H]1C [Example 156, 7-((3S,5S)-4-acryloyl-3,5-dimethylpiperazin-1-yl)-9-chloro-10-(2,4-difluorophenyl)-2,3-dihydro-5H-[1,4]thiazino[2,3,4-ij]quinazolin-5-one]  0%
2. C=CC(=O)N1C[C@H](C#N)N(c2nc(=O)n3c4c(c(-c5ccc(F)cc5F)c(Cl)cc24)SCC3)C[C@H]1C [Example 161, (2R,5R)-4-acryloyl-1-(9-chloro-10-(2,4-difluorophenyl)-5-oxo-2,3-dihydro-5H-[1,4]thiazino[2,3,4-ij]quinazolin-7-yl)-5-methylpiperazine-2-carbonitrile]  1%
3. C=CC(=O)N1CCN(c2nc(=O)n3c4c(c(-c5cccc6ccccc56)c(Cl)cc24)SCC3)[C@@H](C)C1 [Example 154, (R)-7-((S)-4-acryloyl-2-methylpiperazin-1-yl)-9-chloro-10-(naphthalen-1-yl)-2,3-dihydro-5H-[1,4]thiazino[2,3,4-ij]quinazolin-5-one]  24%
4. C=CC(=O)N1CCN(c2nc(=O)n3c4c(c(-c5c(C)ccc6[nH]ncc56)c(Cl)cc24)SCC3)[C@@H](C)C1 [Example 159, 7-((S)-4-acryloyl-2-methylpiperazin-1-yl)-9-chloro-10-(5-methyl-1H-indazol-4-yl)-2,3-dihydro-5H-[1,4]thiazino[2,3,4-ij]quinazolin-5-one]  37.2%
5. C=CC(=O)N1CCN(c2nc(=O)n3c4c(c(-c5cc(C(F)F)ccc5F)c(Cl)cc24)SCC3)[C@@H](C)C1 [Example 162, 7-((S)-4-acryloyl-2-methylpiperazin-1-yl)-9-chloro-10-(5-(difluoromethyl)-2-fluorophenyl)-2,3-dihydro-5H-[1,4]thiazino[2,3,4-ij]quinazolin-5-one]  39%
6. C=CC(=O)N1CCN(c2nc(=O)n3c4c(c(-c5cc(OC(F)F)ccc5F)c(Cl)cc24)SCC3)[C@@H](C)C1 [Example 163, 7-((S)-4-acryloyl-2-methylpiperazin-1-yl)-9-chloro-10-(5-(difluoromethoxy)-2-fluorophenyl)-2,3-dihydro-5H-[1,4]thiazino[2,3,4-ij]quinazolin-5-one]  41.4%
7. C=CC(=O)N1CCN(c2nc(=O)n3c4c(c(-c5ccc(F)cc5F)c(Cl)cc24)SCC3CN2CCOCC2)[C@@H](C)C1 (stereo partly drawn) [Example 147, 7-((S)-4-acryloyl-2-methylpiperazin-1-yl)-9-chloro-10-(2,4-difluorophenyl)-3-(morpholinomethyl)-2,3-dihydro-5H-[1,4]thiazino[2,3,4-ij]quinazolin-5-one]  44.6%
8. C=CC(=O)N1CCN(c2nc(=O)n3c4c(c(-c5ccc(F)cc5F)c(Cl)cc24)S(=O)(=O)CC3)[C@@H](C)C1 [Example 149, (S)-7-((S)-4-acryloyl-2-methylpiperazin-1-yl)-9-chloro-10-(2,4-difluorophenyl)-2,3-dihydro-5H-[1,4]thiazino[2,3,4-ij]quinazolin-5-one 1,1-dioxide]  52.8%
9. C=CC(=O)N1CCN(c2nc(=O)n3c4c(c(-c5cc(O)ccc5F)c(Cl)cc24)SCC3)[C@@H](C)C1 [Example 152, 7-((S)-4-acryloyl-2-methylpiperazin-1-yl)-9-chloro-10-(2-fluoro-5-hydroxyphenyl)-2,3-dihydro-5H-[1,4]thiazino[2,3,4-ij]quinazolin-5-one]  55.3%
10. C=CC(=O)N1CCN(c2nc(=O)n3c4c(c(-c5cc(O)ccc5Cl)c(Cl)cc24)SCC3)[C@@H](C)C1 [Example 153, 7-((S)-4-acryloyl-2-methylpiperazin-1-yl)-9-chloro-10-(2-chloro-5-hydroxyphenyl)-2,3-dihydro-5H-[1,4]thiazino[2,3,4-ij]quinazolin-5-one]  55.7%
11. C=CC(=O)N1CCN(c2nc(=O)n3c4c(c(-c5ccc(F)cc5F)c(Cl)cc24)SCC3)C2CCC21 (stereo not shown) [Example 145, 7-(5-acryloyl-2,5-diazabicyclo[4.2.0]octan-2-yl)-9-chloro-10-(2,4-difluorophenyl)-2,3-dihydro-5H-[1,4]thiazino[2,3,4-ij]quinazolin-5-one]  58%
12. C=CC(=O)N1CCN(c2nc(=O)n3c4c(c(-c5ccc(F)cc5F)c(Cl)cc24)SCC3)[C@@H](CO)C1 [Example 150, 7-((R)-4-acryloyl-2-(hydroxymethyl)piperazin-1-yl)-9-chloro-10-(2,4-difluorophenyl)-2,3-dihydro-5H-[1,4]thiazino[2,3,4-ij]quinazolin-5-one]  59.9%
13. C=CC(=O)N1CCN(c2nc(=O)n3c4c(c(-c5ccc(F)cc5F)c(Cl)cc24)SCC3)[C@H](C)C1 [Example 158, 7-((R)-4-acryloyl-2-methylpiperazin-1-yl)-9-chloro-10-(2,4-difluorophenyl)-2,3-dihydro-5H-[1,4]thiazino[2,3,4-ij]quinazolin-5-one]  64%
14. C=CC(=O)N1CCN(c2nc(=O)n3c4c(c(-c5ccc(F)cc5F)c(Cl)cc24)SCC3)C2CSCC21 (stereo not shown) [Example 144, 7-(4-acryloylhexahydrothieno[3,4-b]pyrazin-1(2H)-yl)-9-chloro-10-(2,4-difluorophenyl)-2,3-dihydro-5H-[1,4]thiazino[2,3,4-ij]quinazolin-5-one]  64.9%
15. C=CC(=O)N1CCN(c2nc(=O)n3c4c(c(-c5ccccc5F)c(Cl)cc24)SCC3)[C@@H](C)C1 [Example 160, 7-((S)-4-acryloyl-2-methylpiperazin-1-yl)-9-chloro-10-(2-fluorophenyl)-2,3-dihydro-5H-[1,4]thiazino[2,3,4-ij]quinazolin-5-one]  72.7%
16. C=CC(=O)N1CCN(c2nc(=O)n3c4c(c(-c5c(F)cc(F)cc5F)c(Cl)cc24)SC[C@H]3COC)[C@@H](C)C1 [Example 137, (R)-7-((S)-4-acryloyl-2-methylpiperazin-1-yl)-9-chloro-3-(methoxymethyl)-10-(2,4,6-trifluorophenyl)-2,3-dihydro-5H-[1,4]thiazino[2,3,4-ij]quinazolin-5-one]  86.8%
17. C=CC(=O)N1CCN(c2nc(=O)n3c4c(c(-c5ccc(F)cc5F)c(Cl)cc24)SCC3)C[C@@H]1C [Example 140, 7-((S)-4-acryloyl-3-methylpiperazin-1-yl)-9-chloro-10-(2,4-difluorophenyl)-2,3-dihydro-5H-[1,4]thiazino[2,3,4-ij]quinazolin-5-one]  90.6%
18. C=CC(=O)N1CCN(c2nc(=O)n3c4c(c(-c5c(F)cc(F)cc5F)c(Cl)cc24)SCC3)[C@@H](C)C1 [Example 146, (S)-7-(4-acryloyl-2-methylpiperazin-1-yl)-9-chloro-10-(2,4,6-trifluorophenyl)-2,3-dihydro-5H-[1,4]thiazino[2,3,4-ij]quinazolin-5-one]  90.7%
19. C=CC(=O)N1CCN(c2nc(=O)n3c4c(c(-c5cccc6ccccc56)c(Cl)cc24)SCC3)[C@@H](C)C1 [Example 155, (S)-7-((S)-4-acryloyl-2-methylpiperazin-1-yl)-9-chloro-10-(naphthalen-1-yl)-2,3-dihydro-5H-[1,4]thiazino[2,3,4-ij]quinazolin-5-one]  92.2%
20. C=CC(=O)N1CCN(c2nc(=O)n3c4c(c(-c5ccc(F)cc5)c(Cl)cc24)SCC3)[C@@H](C)C1 [Example 151, (S)-7-(4-acryloyl-2-methylpiperazin-1-yl)-9-chloro-10-(4-fluorophenyl)-2,3-dihydro-5H-[1,4]thiazino[2,3,4-ij]quinazolin-5-one]  94.1%
21. C=CC(=O)N1CCN(c2nc(=O)n3c4c(c(-c5ccc(F)cc5F)c(Br)cc24)SCC3)[C@@H](C)C1 [Example 142, 7-((S)-4-acryloyl-2-methylpiperazin-1-yl)-9-bromo-10-(2,4-difluorophenyl)-2,3-dihydro-5H-[1,4]thiazino[2,3,4-ij]quinazolin-5-one]  94.7%
22. C=CC(=O)N1CCN(c2nc(=O)n3c4c(c(-c5ccc(F)cc5F)c(Cl)cc24)SCC3)C[C@H]1C [Example 139, 7-((R)-4-acryloyl-3-methylpiperazin-1-yl)-9-chloro-10-(2,4-difluorophenyl)-2,3-dihydro-5H-[1,4]thiazino[2,3,4-ij]quinazolin-5-one]  94.8%
23. C=CC(=O)N1[C@H](C)CN(c2nc(=O)n3c4c(c(-c5ccc(F)cc5F)c(Cl)cc24)SCC3)C[C@@H]1C [Example 157, 7-((3R,5S)-4-acryloyl-3,5-dimethylpiperazin-1-yl)-9-chloro-10-(2,4-difluorophenyl)-2,3-dihydro-5H-[1,4]thiazino[2,3,4-ij]quinazolin-5-one]  95%
24. C=CC(=O)N1CCN(c2nc(=O)n3c4c(c(-c5ccc(F)cc5F)c(C5CC5)cc24)SCC3)[C@@H](C)C1 [Example 143, 7-((S)-4-acryloyl-2-methylpiperazin-1-yl)-9-cyclopropyl-10-(2,4-difluorophenyl)-2,3-dihydro-5H-[1,4]thiazino[2,3,4-ij]quinazolin-5-one]  95.4%
25. C=CC(=O)N1CCN(c2nc(=O)n3c4c(c(-c5ccc(F)cc5F)c(C(F)(F)F)cc24)SCC3)[C@@H](C)C1 [Example 141, 7-((S)-4-acryloyl-2-methylpiperazin-1-yl)-10-(2,4-difluorophenyl)-9-(trifluoromethyl)-2,3-dihydro-5H-[1,4]thiazino[2,3,4-ij]quinazolin-5-one]  95.7%
26. C=CC(=O)N1C2CC(=O)CC1CN(c1nc(=O)n3c4c(c(-c5ccc(F)cc5F)c(Cl)cc14)SCC3)C2 [Example 138, 7-(9-acryloyl-7-oxo-3,9-diazabicyclo[3.3.1]nonan-3-yl)-9-chloro-10-(2,4-difluorophenyl)-2,3-dihydro-5H-[1,4]thiazino[2,3,4-ij]quinazolin-5-one]  95.8%
27. C=CC(=O)N1CCN(c2nc(=O)n3c4c(c(-c5ccc(F)cc5F)c(Cl)cc24)S(=O)(=O)CC3)[C@@H](C)C1 [Example 148]  95.9%

Same assay, conditions: 10 μM, 1 h; Table 4

In the case of `C=CC(=O)N1CCN(c2nc(=O)n3c4c(c(-c5c(F)cc(F)cc5F)c(Cl)cc24)SC[C@H]3COC)[C@@H](C)C1` [Example 137, (R)-7-((S)-4-acryloyl-2-methylpiperazin-1-yl)-9-chloro-3-(methoxymethyl)-10-(2,4,6-trifluorophenyl)-2,3-dihydro-5H-[1,4]thiazino[2,3,4-ij]quinazolin-5-one], the “% CAF @ 10 μM, 1 h” value was 86.8%.
